We go through two compounds from US6488952B1, “Semisolid therapeutic delivery system and combination semisolid, multiparticulate, therapeutic delivery system” (priority 2001, dated 2002).

SMILES strings stand for the structures. Bounds are passed on as bounds.

Data set [1] is described as follows: Incorporation of BCNU into GMO gel without disruption of the three-dimensional structure. The class given is physicochemical. The following applies: physiologic temperature. An excerpt: The drug, such as BCNU, releases from the semisolid through diffusion, conceivably in a biphasic manner. A first phase involves, for example, a lipophilic drug contained within the lipophilic membrane diffuses therefrom into the aqueous channel 15. The second phase involves diffusion of the drug from the aqueous channel 15 into the external environment. Being lipophilic, BCNU orients itself inside the GMO gel within its proposed lipid bi-layer structure. Thus, incorporating greater than approximately 7.5% BCNU by weight into GMO causes a loss of the integrity of the three-dimensional structure whereby the gel system no longer maintains the semisolid cubic phase, and reverts to the viscous lamellar phase liquid.
It is possible to incorporate approximately 7.5% BCNU by weight into GMO gel at physiologic temperature without disruption of the normal three-dimensional structure. In addition, an average glioma tumor measures approximately 3 centimeters in diameter and equates to approximately 14 cubic centimeters in volume. As a result, approximately 11.5 to 12.0 grams of GMO gel may be implanted into the resection pocket. This equates to a possible drug dosage of approximately 900 milligrams with maximal drug. As stated earlier, the clinically recommended dose of BCNU delivered by Gliadel® Wafers to date is approximately 65 milligrams.

The nature of data set [2]: Miscibility of GMS in H2O. The class given is physicochemical. An excerpt: It is recognized that alternative semisolids, modified formulations and methods of production exist such that the lipophilic nature of the semisolid can be altered, or in the alternative, the aqueous channels 15 contained within the semisolid can be altered. Thus, various therapeutic agents in varying concentrations may diffuse from the semisolid at differing rates, or be released therefrom over time via the aqueous channels 15 of the semisolid. Hydrophilic substances may be utilized to alter semisolid consistency or drug release by alteration of viscosity, fluidity, surface tension or the polarity of the aqueous component. […] However, because GMS is a surfactant, GMS is miscible in H2O up to approximately 20% weight/weight. For purposes of this disclosure, the term “surfactant” means surface active agent, thus being miscible in H2O in limited concentrations as well as polar substances. Upon heating and stirring, the 80% H2O/20% GMS combination produces a spreadable paste having a consistency resembling hand lotion.

Turning to `O=NN(CCCl)C(=O)NCCCl` [BCNU, 1,3-bis[2-chloroethyl]-1-nitrosourea], the “BCNU incorporated into GMO gel without disruption of the normal three-dimensional structure” value in data set [1] was “approximately 7.5 % by weight”.
Consider `CCCCCCCCCCCCCCCCCC(=O)OCC(O)CO` (centres unmarked) [GMS, glyceryl monostearate], for which, in data set [2], the “miscibility in H2O” value is listed as ≤ 20 % weight/weight.
